According to US9249087B2, “HDAC inhibitors and therapeutic methods using the same” (THE BOARD OF TRUSTEES OF THE UNIVERSITY OF ILLINOIS, priority 2011, dated 2016):
Read-outs that look alike come from different tables or passages of the source.

Tests used:
primary cortical neurons = assay: HCA oxidative stress neuroprotection assay (MTT); format: cell-based
From the text: It has been shown that HDAC6 inhibition protects against neuronal degeneration and stimulates neurite outgrowth in dorsal root ganglion neurons, therefore indicating methods of treating CNS diseases. Accordingly, present HDACI compounds were examined in a model of oxidative stress induced by homocysteic acid (HCA). This model leads to depletion of glutathione, the major intracellular antioxidant. HDAC6 inhibition rescues neuronal death in this model, possibly by causing hyperacetylation of peroxiredoxins. […] (A. P. Kozikowski et al., J. Med. Chem. 2007, 50, 3054-61.)
FIGS. 1 and 2 contain neuroprotection bar graphs of the HCA oxidative stress test assay. Neurons were treated with TSA (FIG. 1) or a present HDACI compound (FIG. 2), alone or with the addition of HCA (homocysteic acid).
The data summarized in FIGS. 1 and 2 was obtained according to the following neuroprotective assay. Primary cortical neuron cultures were obtained from the cerebral cortex of fetal Sprague-Dawley rats (embryonic day 17). All experiments were initiated 24 hours after plating. Under these conditions, the cells are not susceptible to glutamate-mediated excitotoxicity. […] Viability was assessed after 24 hours by the MTT assay (3-(4,5-dimethylthiazol-2-yl)-2,5-diphenyltetrazolium bromide) method.

HDAC2 = HDAC2 (Homo sapiens (Human), UniProt Q92769); assay: HDAC2 fluorogenic peptide deacetylation inhibition assay; format: biochemical; conditions: average of two experiments; read-out: HDAC Isoform IC50 (μM) 2
HDAC5 = HDAC5 (Homo sapiens (Human), UniProt Q9UQL6); assay: HDAC5 inhibition assay (Acetyl-Lys(trifluoroacetyl)-AMC substrate); format: biochemical; conditions: average of two experiments; read-out: HDAC Isoform IC50 (μM) 5
mice with colitis = assay: colitis in mice; format: in vivo; conditions: treatment begun once colitis had developed
From the text: Studies of autoimmunity also are undertaken. In this case, interruption of existing disease is especially important and HDAC6 targeting can be efficacious without any requirement for additional therapy (in contrast to a need for brief low-dose RPM in the very aggressive, fully MHC-mismatched transplant models). […] These studies are extended by assessing whether deletion of HDAC6 in Tregs (Foxp3/Cre) vs. T cells (CD4=Cre) vs. DC (CD11c-Cre) differentially affect the development and severity of colitis. Similarly, control of colitis is assessed by inducing HDAC6 deletion at varying intervals after the onset of colitis with tamoxifen-regulated Cre.

HDAC7 = HDAC7 (Homo sapiens (Human), UniProt Q8WUI4); conditions: read-out: HDAC Isoform IC50 (μM) 7
Human HDAC1 = Human HDAC1 (Homo sapiens (Human), UniProt Q13547); assay: HDAC1 fluorogenic peptide deacetylation inhibition assay; format: biochemical; conditions: average of two experiments; read-out: HDAC Isoform IC50 (μM) 1
Human HDAC6 = Human HDAC6 (Homo sapiens (Human), UniProt Q9UBN7); assay: HDAC6 fluorogenic peptide deacetylation inhibition assay; format: biochemical; conditions: for HDAC6 Selectivity (HDAC1/HDAC6): ratio HDAC1 IC50/HDAC6 IC50
HDAC8 = HDAC8 (Homo sapiens (Human), UniProt Q9BY41); assay: HDAC8 inhibition assay (fluorogenic diacyl peptide); format: biochemical; conditions: average of two experiments; read-out: HDAC Isoform IC50 (μM) 8
HDAC9 = HDAC9 (Homo sapiens (Human), UniProt Q9UKV0); assay: HDAC9 inhibition assay (Acetyl-Lys(trifluoroacetyl)-AMC substrate); format: biochemical; conditions: average of two experiments; read-out: HDAC Isoform IC50 (μM) 9
[1] = test system: traumatic brain injury in rats; conditions: following traumatic brain injury in rats; cited from earlier work
[2] = average of two experiments, read-out: HDAC Isoform IC50 (μM) 6

Chain of HDAC8 (Q9BY41 whole entry, canonical isoform): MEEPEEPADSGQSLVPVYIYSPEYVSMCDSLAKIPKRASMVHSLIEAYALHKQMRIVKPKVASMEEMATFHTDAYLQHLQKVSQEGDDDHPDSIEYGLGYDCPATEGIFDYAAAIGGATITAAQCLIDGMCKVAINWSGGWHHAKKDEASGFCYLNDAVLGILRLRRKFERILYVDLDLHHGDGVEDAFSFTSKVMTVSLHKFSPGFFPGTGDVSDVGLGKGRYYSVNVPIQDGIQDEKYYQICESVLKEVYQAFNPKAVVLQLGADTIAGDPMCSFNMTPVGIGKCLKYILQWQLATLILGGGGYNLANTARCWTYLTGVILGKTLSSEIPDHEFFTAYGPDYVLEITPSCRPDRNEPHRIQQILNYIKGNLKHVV
Chain of HDAC2 (Q92769 whole entry, canonical isoform): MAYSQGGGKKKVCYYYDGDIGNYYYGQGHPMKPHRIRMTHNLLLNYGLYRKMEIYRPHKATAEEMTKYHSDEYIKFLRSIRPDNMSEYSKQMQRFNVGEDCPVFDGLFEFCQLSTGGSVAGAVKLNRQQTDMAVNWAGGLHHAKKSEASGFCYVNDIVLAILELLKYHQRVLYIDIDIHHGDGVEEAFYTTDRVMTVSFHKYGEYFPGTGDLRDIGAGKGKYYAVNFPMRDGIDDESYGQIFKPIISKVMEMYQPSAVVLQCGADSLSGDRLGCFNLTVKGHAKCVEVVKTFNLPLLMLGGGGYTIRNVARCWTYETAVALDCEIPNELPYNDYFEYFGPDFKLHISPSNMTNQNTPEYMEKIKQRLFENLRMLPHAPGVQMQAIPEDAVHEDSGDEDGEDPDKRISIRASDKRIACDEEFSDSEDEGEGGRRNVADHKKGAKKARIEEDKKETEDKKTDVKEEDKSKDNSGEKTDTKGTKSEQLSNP
Chain of HDAC9 (Q9UKV0 whole entry, canonical isoform): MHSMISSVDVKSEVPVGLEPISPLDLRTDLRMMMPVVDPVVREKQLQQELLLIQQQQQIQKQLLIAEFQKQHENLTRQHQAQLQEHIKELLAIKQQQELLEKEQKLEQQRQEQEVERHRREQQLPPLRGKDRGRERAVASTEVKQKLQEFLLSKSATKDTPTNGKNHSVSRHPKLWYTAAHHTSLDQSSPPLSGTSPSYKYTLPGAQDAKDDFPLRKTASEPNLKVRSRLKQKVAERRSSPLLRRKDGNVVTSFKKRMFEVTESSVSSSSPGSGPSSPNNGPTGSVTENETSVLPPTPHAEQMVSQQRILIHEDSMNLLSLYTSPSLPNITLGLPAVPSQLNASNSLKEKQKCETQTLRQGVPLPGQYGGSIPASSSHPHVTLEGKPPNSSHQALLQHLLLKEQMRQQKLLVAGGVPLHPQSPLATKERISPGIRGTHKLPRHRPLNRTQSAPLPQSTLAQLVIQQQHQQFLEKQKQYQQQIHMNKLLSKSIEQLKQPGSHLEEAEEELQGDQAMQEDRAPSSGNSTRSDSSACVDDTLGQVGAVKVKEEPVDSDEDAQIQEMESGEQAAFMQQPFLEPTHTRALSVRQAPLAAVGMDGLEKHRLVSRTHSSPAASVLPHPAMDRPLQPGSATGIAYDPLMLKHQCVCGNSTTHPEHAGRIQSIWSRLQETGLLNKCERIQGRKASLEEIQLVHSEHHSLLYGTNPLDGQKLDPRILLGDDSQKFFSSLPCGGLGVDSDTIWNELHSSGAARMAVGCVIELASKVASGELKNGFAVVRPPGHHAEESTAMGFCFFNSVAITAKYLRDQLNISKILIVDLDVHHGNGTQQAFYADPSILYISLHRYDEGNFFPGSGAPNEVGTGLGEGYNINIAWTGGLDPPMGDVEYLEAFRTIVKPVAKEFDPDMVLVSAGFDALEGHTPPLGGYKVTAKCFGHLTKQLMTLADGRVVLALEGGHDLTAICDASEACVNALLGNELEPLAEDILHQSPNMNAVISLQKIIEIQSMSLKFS
Chain of Human HDAC1 (Q13547 whole entry, canonical isoform): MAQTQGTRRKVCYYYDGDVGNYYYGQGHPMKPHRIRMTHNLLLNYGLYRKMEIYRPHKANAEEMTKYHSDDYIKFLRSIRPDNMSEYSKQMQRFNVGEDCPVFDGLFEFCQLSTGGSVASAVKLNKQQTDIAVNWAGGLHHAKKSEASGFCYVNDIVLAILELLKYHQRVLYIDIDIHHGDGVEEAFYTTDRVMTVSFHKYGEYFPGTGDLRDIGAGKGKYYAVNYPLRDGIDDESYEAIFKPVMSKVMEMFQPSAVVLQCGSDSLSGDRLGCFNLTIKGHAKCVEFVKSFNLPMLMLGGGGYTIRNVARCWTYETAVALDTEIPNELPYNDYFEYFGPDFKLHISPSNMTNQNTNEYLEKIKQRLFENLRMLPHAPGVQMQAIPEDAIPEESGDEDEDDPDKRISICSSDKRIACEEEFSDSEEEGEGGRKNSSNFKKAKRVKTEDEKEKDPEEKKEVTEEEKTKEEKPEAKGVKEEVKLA
Chain of Human HDAC6 (Q9UBN7 whole entry, canonical isoform): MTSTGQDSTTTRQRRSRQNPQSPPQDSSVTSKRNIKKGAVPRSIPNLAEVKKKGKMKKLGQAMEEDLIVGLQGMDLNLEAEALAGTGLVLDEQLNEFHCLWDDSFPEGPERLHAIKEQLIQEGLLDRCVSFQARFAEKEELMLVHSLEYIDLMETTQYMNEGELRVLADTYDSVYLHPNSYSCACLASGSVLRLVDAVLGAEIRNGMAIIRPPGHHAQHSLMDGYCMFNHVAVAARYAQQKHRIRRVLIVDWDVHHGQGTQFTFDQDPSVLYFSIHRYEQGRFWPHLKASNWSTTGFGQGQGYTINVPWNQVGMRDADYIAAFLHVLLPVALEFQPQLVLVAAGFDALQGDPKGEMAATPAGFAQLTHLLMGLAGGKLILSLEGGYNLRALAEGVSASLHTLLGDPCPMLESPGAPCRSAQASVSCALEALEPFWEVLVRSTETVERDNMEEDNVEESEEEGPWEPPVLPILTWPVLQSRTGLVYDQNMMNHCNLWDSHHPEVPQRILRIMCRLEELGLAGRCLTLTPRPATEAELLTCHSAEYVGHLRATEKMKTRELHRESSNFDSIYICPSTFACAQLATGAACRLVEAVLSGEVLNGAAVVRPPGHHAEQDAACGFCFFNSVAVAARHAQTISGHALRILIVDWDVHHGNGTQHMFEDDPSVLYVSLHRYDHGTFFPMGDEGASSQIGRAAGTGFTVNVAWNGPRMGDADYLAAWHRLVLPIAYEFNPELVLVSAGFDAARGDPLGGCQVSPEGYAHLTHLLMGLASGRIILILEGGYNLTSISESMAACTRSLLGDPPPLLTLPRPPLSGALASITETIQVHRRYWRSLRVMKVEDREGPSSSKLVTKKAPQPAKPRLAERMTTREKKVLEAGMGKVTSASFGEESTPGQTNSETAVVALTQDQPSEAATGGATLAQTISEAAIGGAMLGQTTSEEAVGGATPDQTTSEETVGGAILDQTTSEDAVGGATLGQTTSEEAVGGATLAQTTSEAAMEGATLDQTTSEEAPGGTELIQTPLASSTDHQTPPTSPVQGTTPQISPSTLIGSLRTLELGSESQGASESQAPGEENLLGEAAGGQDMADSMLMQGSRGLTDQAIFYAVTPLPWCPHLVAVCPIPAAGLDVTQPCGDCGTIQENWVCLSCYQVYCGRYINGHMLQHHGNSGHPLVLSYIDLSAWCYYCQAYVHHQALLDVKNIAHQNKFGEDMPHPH
Chain of HDAC5 (Q9UQL6 whole entry, canonical isoform): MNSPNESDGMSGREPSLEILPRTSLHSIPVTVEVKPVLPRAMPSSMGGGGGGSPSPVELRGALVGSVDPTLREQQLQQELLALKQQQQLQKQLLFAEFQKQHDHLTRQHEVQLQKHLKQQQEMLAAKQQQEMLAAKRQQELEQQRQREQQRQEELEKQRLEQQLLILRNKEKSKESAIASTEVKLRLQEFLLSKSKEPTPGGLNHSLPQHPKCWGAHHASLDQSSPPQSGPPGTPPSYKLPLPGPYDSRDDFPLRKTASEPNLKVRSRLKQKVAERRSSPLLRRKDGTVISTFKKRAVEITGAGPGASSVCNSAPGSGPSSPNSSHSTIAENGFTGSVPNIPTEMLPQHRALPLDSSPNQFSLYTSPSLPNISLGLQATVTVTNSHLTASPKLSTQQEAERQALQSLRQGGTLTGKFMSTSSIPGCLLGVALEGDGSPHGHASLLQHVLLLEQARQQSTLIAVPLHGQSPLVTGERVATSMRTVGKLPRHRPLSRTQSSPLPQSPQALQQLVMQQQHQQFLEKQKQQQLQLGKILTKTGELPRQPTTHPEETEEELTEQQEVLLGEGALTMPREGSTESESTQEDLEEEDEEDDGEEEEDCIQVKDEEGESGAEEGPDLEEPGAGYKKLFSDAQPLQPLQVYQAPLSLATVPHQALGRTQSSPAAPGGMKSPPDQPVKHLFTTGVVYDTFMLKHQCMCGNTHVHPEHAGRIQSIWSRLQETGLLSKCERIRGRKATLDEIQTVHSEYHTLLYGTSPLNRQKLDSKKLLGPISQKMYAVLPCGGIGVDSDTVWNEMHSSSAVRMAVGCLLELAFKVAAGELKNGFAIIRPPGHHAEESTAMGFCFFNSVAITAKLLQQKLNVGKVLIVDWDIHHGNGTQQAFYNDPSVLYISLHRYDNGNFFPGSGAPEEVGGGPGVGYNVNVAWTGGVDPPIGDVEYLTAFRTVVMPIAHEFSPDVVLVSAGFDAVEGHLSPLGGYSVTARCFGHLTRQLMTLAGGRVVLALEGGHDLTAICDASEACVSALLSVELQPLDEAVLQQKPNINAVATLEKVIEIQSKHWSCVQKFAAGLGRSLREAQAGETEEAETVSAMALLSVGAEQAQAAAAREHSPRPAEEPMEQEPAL

Row | IC50 (HDAC2) [µM] | IC50 (Human HDAC1) [µM] | IC50 (Human HDAC6; [2]) [µM] | IC50 (HDAC8) [µM] | IC50 (HDAC9) [µM] | HDAC6 Selectivity (HDAC1/HDAC6) (Human HDAC6) | SMILES | also measured
1 | – | – | – | – | – | – | CC(/C=C/C(=O)NO)=C\[C@@H](C)C(=O)c1ccc(N(C)C)cc1 [TSA, Trichostatin A] | neuroprotection in HCA-induced neurodegeneration assay (primary cortical neurons; 0.5 μM, HCA 5 mM, viability by MTT after 24 hours): moderately neuroprotective; neurotoxicity to primary cortical neurons (primary cortical neurons; higher concentrations than 0.5 μM): dose-dependant neurotoxicity
2 | 11.9 | 6.79 | 0.00511 | 0.911 | 14.5 | – | Cc1cn(Cc2ccc(C(=O)NO)cc2)c2ccccc12 [Compound 6, N-Hydroxy-4-((3-methyl-1H-indol-1-yl)methyl)benzamide] | –
3 | – | – | – | – | – | – | CN(C)c1ccc(C(=O)NCCCCCNC(=O)CS)cc1 [DMA-PB, 4-dimethylamino-N-[5-(2-mercaptoacetylamino)pentyl]benzamide] | histone H3 acetylation [1]: increase histone H3 acetylation; microglia inflammatory response [1]: reduce microglia inflammatory response
4 | 8.14 | – | – | – | 18.3 | 2127 | Cc1cc2ccccc2n1Cc1ccc(C(=O)NO)cc1 [drawing 137] | –
5 | 8.14 | 5.34 | 0.00251 | 0.397 | 18.3 | – | Cc1cc2ccccc2n1Cc1ccc(C(=O)NO)cc1 [Compound 4, N-Hydroxy-4-((2-methyl-1H-indol-1-yl)methyl)benzamide] | selectivity against HDAC1 (Human HDAC6; HDAC6 vs HDAC1, running text): 2125 fold; IC50 (Human HDAC6; read-out: HDAC6 IC50): 0.0025 µM
6 | 11.9 | – | – | – | 14.5 | 1329 | Cc1cn(Cc2ccc(C(=O)NO)cc2)c2ccccc12 [drawing 138] | –

Row | SMILES | IC50 (HDAC2) [µM] | IC50 (Human HDAC1) [µM] | IC50 (Human HDAC6; [2]) [µM] | IC50 (HDAC8) [µM] | IC50 (HDAC9) [µM] | HDAC6 Selectivity (HDAC1/HDAC6) (Human HDAC6) | also measured
7 | O=C(CCCCCCC(=O)Nc1ccc([C@H]2O[C@@H](CSc3nc(-c4ccccc4)c(-c4ccccc4)o3)C[C@@H](c3ccc(CO)cc3)O2)cc1)NO [Tubacin] | 6.27 | – | – | – | – | – | IC50 (HDAC5): 3.35 µM; rescue of mice with established colitis (mice with colitis): able to rescue mice; IC50 (HDAC7): 9.7 µM
8 | O=C(NO)c1ccc(Cn2ccc3ccccc32)cc1 [drawing 136] | 9.19 | – | – | – | 8.16 | 598 | –
9 | O=C(NO)c1ccc(Cn2ccc3ccccc32)cc1 [Compound 2, 4-((1H-Indol-1-yl)methyl)-N-hydroxybenzamide] | 9.19 | 5.83 | 0.00975 | 0.417 | 8.16 | – | –
